# In patent US20190125786A1, “NOBLE GAS MODULATION OF IL-12” (NOBILIS THERAPEUTICS, INC., priority 2016, published 2019):
# Tests used:
# CD1c dendritic cells = assay: Suppression of Alzheimer's peptide induced dendritic cell IL-12 production (ELISA); format: cell-based, healthy volunteers; settings: monocyte-derived CD1c dendritic cells; 1 ug/ml LPS and 10 μM Aβ (1-42) for 24 h; supernatant ELISA; FIG. 2
# Protocol: Monocytes from adherent PBMC were isolated as described in Example 1. Dendritic cells were generated by 7 day culture in IL-4 (10 ng/ml) and GM-CSF (20 ng/ml). Media was changed every two days. On day 7, purification of CD1c dendritic cells was performed and cells were cultured in control media, 1 ug/ml LPS and 10 μM of amyloid beta peptide Aβ (1-42) for 24 h. Supernatant was collected and assessed for IL-12 production by ELISA.
# [1] = tested on: monocytes (adherent peripheral blood mononuclear cells); assay: Suppression of Alzheimer's peptide induced monocyte TNF-alpha production (ELISA); format: cell-based, healthy volunteers; settings: adherent cells cultured 1 hour or 2 hours in 30% xenon by volume; 1 ug/ml LPS and 10 μM Aβ (1-42) for 24 h; supernatant ELISA; FIG. 1
# Protocol: 10 ml of heparinized blood was extracted from healthy volunteers and peripheral blood mononuclear cells were isolated by centrifugation over a ficoll gradient. Cells were subsequently washed in 2× volume phosphate buffered saline, and resuspended in RPMI media supplemented with 10% fetal calf serum. Cells were incubated at a concentration of 10 million cells per ml in 6-well plates in a volume of 2 ml per well. Cells were cultured for 24 hours at 37 Celsius in a fully humidified atmosphere with 5% CO2, subsequent to which non-adherent cells were removed by washing with PBS. Adherent cells were subsequently divided into […], one plate incubated at normoxic tissue culture, the second plate cultured for 1 hour in 30% xenon by volume, and the third tissue cultured for 2 hours in 30% volume. Cells were treated with control media, 1 ug/ml LPS and 10 μM of amyloid beta peptide Aβ (1-42) for 24 h. Supernatant was collected and assessed for TNF-alpha production by ELISA.
structure (smiles),measurement,setting,value
"[Xe] [xenon gas, xenon]",induced IL-12 production,CD1c dendritic cells,suppression of induced IL-12 production was observed
same,induced TNF-alpha production,[1],suppression of induced TNF-alpha production was observed
